According to the NIST ThermoML archive (doi:10.1021/je900725w):
Numbers after ± are expanded uncertainties.

What was measured:
[1] = 308.15 K, 101.33 kPa, Liquid
[2] = relative permittivity at zero frequency (dimensionless); wn = mass fraction of the nth substance listed; conditions: 101 kPa, Liquid, Parallel plate capacitor
[3] = wn = mass fraction of the nth substance listed; conditions: 101 kPa, Liquid; for viscosity: Capillary tube (Ostwald / Ubbelohde) method; for mass density: Vibrating tube method

**Q.** For CCOCCO [2-ethoxyethan-1-ol], which mass density [1] is on record?
**A.** The mass density was 924.97 ± 0.61 kg/m3.

**Q.** And the viscosity ([1]; Capillary tube (Ostwald / Ubbelohde) method)?
**A.** Its viscosity is 1.828 ± 0.018 mPa·s.

**Q.** With CCOCCO [2-ethoxyethan-1-ol] + O as the molecule, how does the “relative permittivity at zero frequency” value ([2]; 308.15 K, w1 = 0.25) read?
**A.** Its value is 60.13 ± 0.01.

**Q.** And the “relative permittivity at zero frequency” value ([2]; 308.15 K, w1 = 0.4)?
**A.** The value was 50.54 ± 0.01.

**Q.** And the “relative permittivity at zero frequency” value ([2]; 308.15 K, w1 = 0.5)?
**A.** The value was 44.3 ± 0.01.

**Q.** What about the “relative permittivity at zero frequency” value ([2]; 313.15 K, w1 = 0.25) of the same molecule?
**A.** Its value is 58.7 ± 0.01.

**Q.** And the “relative permittivity at zero frequency” value ([2]; 313.15 K, w1 = 0.4)?
**A.** Its value is 49.28 ± 0.01.

**Q.** What about the “relative permittivity at zero frequency” value ([2]; 313.15 K, w1 = 0.5) of the same molecule?
**A.** The value was 43.03 ± 0.01.

**Q.** What about the “relative permittivity at zero frequency” value ([2]; 318.15 K, w1 = 0.25) of the same molecule?
**A.** The value was 57.37 ± 0.01.

**Q.** What about the “relative permittivity at zero frequency” value ([2]; 318.15 K, w1 = 0.4) of the same molecule?
**A.** Its value is 48.14 ± 0.01.

**Q.** What about the “relative permittivity at zero frequency” value ([2]; 318.15 K, w1 = 0.5) of the same molecule?
**A.** The value was 41.95 ± 0.01.

**Q.** What about the “relative permittivity at zero frequency” value ([2]; 323.15 K, w1 = 0.25) of the same molecule?
**A.** The value was 56.11 ± 0.01.

**Q.** And the “relative permittivity at zero frequency” value ([2]; 323.15 K, w1 = 0.4)?
**A.** Its value is 47.1 ± 0.01.

**Q.** And the “relative permittivity at zero frequency” value ([2]; 323.15 K, w1 = 0.5)?
**A.** Its value is 40.96 ± 0.01.

**Q.** What about the viscosity ([3]; 308.15 K, w1 = 0.25) of the same molecule?
**A.** The viscosity was 1.843 ± 0.02 mPa·s.

**Q.** What about the viscosity ([3]; 308.15 K, w1 = 0.4) of the same molecule?
**A.** Its viscosity is 1.955 ± 0.018 mPa·s.

**Q.** What about the viscosity ([3]; 308.15 K, w1 = 0.5) of the same molecule?
**A.** The viscosity was 1.923 ± 0.018 mPa·s.

**Q.** What about the mass density ([3]; 308.15 K, w1 = 0.25) of the same molecule?
**A.** The mass density was 997.58 ± 0.4 kg/m3.

**Q.** What about the mass density ([3]; 308.15 K, w1 = 0.4) of the same molecule?
**A.** Its mass density is 997.47 ± 0.41 kg/m3.

**Q.** And the mass density ([3]; 308.15 K, w1 = 0.5)?
**A.** The mass density was 993.61 ± 0.41 kg/m3.

**Q.** And the viscosity ([3]; 313.15 K, w1 = 0.25)?
**A.** The viscosity was 1.529 ± 0.017 mPa·s.

**Q.** What about the viscosity ([3]; 313.15 K, w1 = 0.4) of the same molecule?
**A.** Its viscosity is 1.702 ± 0.018 mPa·s.

**Q.** What about the viscosity ([3]; 313.15 K, w1 = 0.5) of the same molecule?
**A.** Its viscosity is 1.72 ± 0.017 mPa·s.

**Q.** And the mass density ([3]; 313.15 K, w1 = 0.25)?
**A.** Its mass density is 992.45 ± 0.4 kg/m3.

**Q.** What about the mass density ([3]; 313.15 K, w1 = 0.4) of the same molecule?
**A.** Its mass density is 991.01 ± 0.41 kg/m3.

**Q.** And the mass density ([3]; 313.15 K, w1 = 0.5)?
**A.** Its mass density is 985.14 ± 0.41 kg/m3.

**Q.** What about the viscosity ([3]; 318.15 K, w1 = 0.25) of the same molecule?
**A.** The viscosity was 1.274 ± 0.014 mPa·s.

**Q.** And the viscosity ([3]; 318.15 K, w1 = 0.4)?
**A.** Its viscosity is 1.427 ± 0.015 mPa·s.

**Q.** What about the viscosity ([3]; 318.15 K, w1 = 0.5) of the same molecule?
**A.** The viscosity was 1.455 ± 0.015 mPa·s.

**Q.** What about the mass density ([3]; 318.15 K, w1 = 0.25) of the same molecule?
**A.** Its mass density is 988.07 ± 0.4 kg/m3.

**Q.** What about the mass density ([3]; 318.15 K, w1 = 0.4) of the same molecule?
**A.** The mass density was 986.96 ± 0.4 kg/m3.

**Q.** And the mass density ([3]; 318.15 K, w1 = 0.5)?
**A.** The mass density was 980.04 ± 0.41 kg/m3.

**Q.** And the viscosity ([3]; 323.15 K, w1 = 0.25)?
**A.** Its viscosity is 1.092 ± 0.012 mPa·s.

**Q.** And the viscosity ([3]; 323.15 K, w1 = 0.4)?
**A.** The viscosity was 1.232 ± 0.013 mPa·s.

**Q.** And the viscosity ([3]; 323.15 K, w1 = 0.5)?
**A.** The viscosity was 1.276 ± 0.013 mPa·s.

**Q.** What about the mass density ([3]; 323.15 K, w1 = 0.25) of the same molecule?
**A.** Its mass density is 983.94 ± 0.4 kg/m3.

**Q.** And the mass density ([3]; 323.15 K, w1 = 0.4)?
**A.** Its mass density is 983.78 ± 0.4 kg/m3.

**Q.** And the mass density ([3]; 323.15 K, w1 = 0.5)?
**A.** The mass density was 976.1 ± 0.4 kg/m3.
